Source: US20030049267A1, “Systemic immune response induced by mucosal administration of lipid-tailed polypeptides without adjuvant” (INSTITUT PASTEUR, priority 1999, published 2003)
*: point of attachment. Palmitoyl = CCCCCCCCCCCCCCCC(=O)*

Legend:
Type in all cases: in vivo
[1] = system: BALB/c, C3H/HeJ, or C57BL/6 mice; assay: Serum polypeptide-specific IgG ELISA after immunization with LSA3-NRII polypeptides
Text: To investigate the ability of lipid-tailed polypeptides to induce systemic antibody responses using mucosal route, the LSA3-NRII lipid-tailed polypeptide was administrated either intranasally (I.N.) or sub-lingually (S.L.) in BALB/c, C3H/HeJ which were found previously to respond strongly to the epitopes of LSA3-NRII, or C57BL/6 mice which is poorly responsive. Negative and positive controls received respectively, the non-lipidated polypeptide administrated by IN and S.L. route, or the same lipid-tailed polypeptide injected subcutaneously (S.C.) without adjuvant.
Individual blood samples were obtained via the retro-orbital plexus by 9 to 15 days post immunization (dpi) and sera were stored at-70i C until assayed for IgG, IgA and IgM polypeptide- and parasite-specific Abs. The presence of anti-peptide antibodies in sera was determined using Enzyme-linked immunosorbent assay (ELISA) as reported previously (BenMohamed et coll., 1997). ELISA plates (Nunc, Roskilde, Denmark) were coated overnight at 4i C with 0.1 ml of LSA3-NRII or LSA1-J polypeptide solution at 3 zg/ml in PBS buffer pH 7.4 containing 3% BSA. The LSA1-J polypeptide was used as the irrelevant control of LSA3-NRII and vice versa. The plates were washed twice in PBS with 0.01% Tween-20 (PBS-T), blocked for 1 hr in PBS-T supplemented with 1% BSA prior to the addition of 0.1 ml of 1/100 dilution of mouse sera. The plates were then incubated at 37iC for one hour. After washing, the bound IgG were detected using peroxidase-conjugated goat anti-mouse IgG (Biosys, Compiegne, France) added at a 1/2000 dilution. Following incubation at 37iC for 1 hour and a final wash, 50 μl of 0.30% H2O2 containing orthophenylenediamine dihydrochloride (OPD, Sigma, St. Louis), dissolved in 0.1 M citrate buffer (pH 5.0) were added to each well at room temperature. The OD450 nm was measured using a multichannel spectrophotometer (Titertek Multiskan MCC. 340). Individual sera from all groups were diluted 1/100 and analyzed separately. Preimmune sera were used as negative controls and the results were expressed either as optical density (OD) at 450nm or as ELISA-RATIO calculated as follows: OD450 nm postimmune sera divided by OD450 nm preimmune sera. […] Isotype analysis of mouse was carried out using class specific […] Goat anti-Mouse IgA, IgM, IgGI, IgG2a, IgG2b or IgG3 HRP-Labeled (Southern Biotechnology Associates, Birmingham, USA) added at a 1/2000 dilution in PBS-T, as previously described (BenMohamed et coll., 1997).

[2] = system: C3H/HeJ mice; assay: Isotype analysis of polypeptide-specific serum antibodies (ELISA)
[3] = system: P. falciparum sporozoites and hepatic schizonts; assay: Immunofluorescent Ab assay (IFAT) of sera from mucosally immunized mice
Procedure: FIG. 2: Mucosal immunization elicits parasite-specific antibody responses. Sera were obtained from C3H/HeJ mice at 2 weeks post-immunization by either nasal or sub-lingual route and assayed fro recognition of (a) P. falciparum sporozoites and (B) hepatic schizonts in an IFI assay as described in Material and Methods. The data are representative of three independent experiments.
The reactivity of the sera against native proteins from various stages of the parasite were analyzed by IFAT using either (i) P. falciparum NF54 strain sporozoites (a gift of W. Eling), or (ii) sections from liver biopsies containing day 5 P. falciparum liver schizonts, or (iii) day 6 ½ P. falciparum liver schizonts obtained from a Chimpanzee. IFAT-labeled anti-human IgG, -A, -M (Diagnostic Pasteur France) or anti-mouse (Cappel. Wester Chester. PA) diluted {fraction (1/200 )} were employed as second Abs.

[4] = system: spleen and inguinal lymph node cells of C3H/HeJ mice; assay: Lymphocyte proliferative assay after immunization with LSA3-NRII polypeptides
Procedure: FIG. 3: Systemic cellular immune responses are electited by presentation of lipid-tailed polypeptides to the nasal and sub-lingual mucosal surfaces. Groups of five C3H/HeJ mice were administrated with LSA3-NRII lipid-tailed (black bars) or non-lipidated polypeptide (hatched bars) either a) intranasally, b) sub-lingually, or c) subcutaneously. Two weeks after two administrations, cell suspensions from individual spleens were assayed for in vitro proliferation to the recall polypeptide. Results are expressed as Δ cpm. The background cpm, in unstimulated cells were 1548 fro intranasal, 2356 for sub-lingual and 1965 for subcutaneous routs. Bars represent the mean Δ cpm ± SD in each group. The data were similar and are representative of three separate experiments.

[5] = system: ganglia sub-mandibulaires cells of BALB/c mice

Substance: Ac-LEESQVNDDIFNSLVKSVQQEQQHNVK(Pam)NH2 (Ac-LEESQVNDDIFNSLVKSVQQEQQHNVK(Palmitoyl)-NH2; SMILES CCCCCCCCCCCCCCCC(=O)NCCCC[C@H](NC(=O)[C@@H](NC(=O)[C@H](CC(N)=O)NC(=O)[C@H](Cc1c[nH]cn1)NC(=O)[C@H](CCC(N)=O)NC(=O)[C@H](CCC(N)=O)NC(=O)[C@H](CCC(=O)O)NC(=O)[C@H](CCC(N)=O)NC(=O)[C@H](CCC(N)=O)NC(=O)[C@@H](NC(=O)[C@H](CO)NC(=O)[C@H](CCCCN)NC(=O)[C@@H](NC(=O)[C@H](CC(C)C)NC(=O)[C@H](CO)NC(=O)[C@H](CC(N)=O)NC(=O)[C@H](Cc1ccccc1)NC(=O)[C@@H](NC(=O)[C@H](CC(=O)O)NC(=O)[C@H](CC(=O)O)NC(=O)[C@H](CC(N)=O)NC(=O)[C@@H](NC(=O)[C@H](CCC(N)=O)NC(=O)[C@H](CO)NC(=O)[C@H](CCC(=O)O)NC(=O)[C@H](CCC(=O)O)NC(=O)[C@H](CC(C)C)NC(C)=O)C(C)C)[C@@H](C)CC)C(C)C)C(C)C)C(C)C)C(N)=O) [LSA3-NRII lipid-tailed polypeptide, P. falciparum LSA-3 derived polypeptide with palmitoyl tail on side chain of C-terminal lysylamide]
- antibody response ([1]; C57BL/6 strain, mucosal or subcutaneous administration): No antibody response
- polypeptide-specific antibody responses in serum (ELISA) ([1]; I.N. or S.L. administration, without adjuvant, BALB/c and C3H/HeJ, serum two weeks after the second administration): high titers
- mean titers of IgG antibodies, mucosal routes versus S.C. route ([1]; both mucosal routes (I.N., S.L.) compared with S.C., p<0.05): significantly higher
- polypeptide specific antibody titers, sub-lingual versus intranasal groups ([1]; p<0.05 in BALB/c and p<0.01 in C3H/HeJ): significantly higher
- anti-peptide IgA, IgM and IgG3 ([2]; all groups (I.N., S.L., S.C.)): low and similar titers
- serum antibody isotype response ([2]; mucosal administration (I.N., S.L.)): preferential IgG2a
- serum antibody isotype response ([2]; subcutaneous route): dominant IgG1
- reactivity of induced Abs with infected RBC's ([3]; different steps of intra-erythrocytic maturation): did not react
- reactivity of induced Abs with intact parasite by IFAT ([3]; sera of mucosally immunized BALB/c and C3H/HeJ, sporozoite and liver stages): react with the intact parasite
- proliferative responses against irrelevant polypeptide (LSA1-J) ([4]; Ag specificity control): lack of responses
- proliferative response in inguinal lymph nodes, maximal delta cpm ([4]; S.L. (first value)): 12525 cpm
- proliferative responses in spleen cells ([4]; S.L. or I.N. application, without mucosal adjuvant, recall polypeptide): strong proliferative responses
- phenotype of lymphoproliferative responses ([4]; mucosal administration, abrogated by antibodies against CD4 but not by anti-CD8): CD4 phenotype
- proliferative response in inguinal lymph nodes, maximal delta cpm ([4]; printed 'in S.L'): 16189 cpm
- proliferative responses, mucosally versus subcutaneously immunized animals ([4]; same dose, P<0.05): higher levels

Substance: Concanavaline A [CON A, reference compound]
- immune response (CFSE shift), positive control ([5]; in vitro positive control): maximum immune response

Substance: Nh2-K(NεPam)GRQYIKANSKFIGITERGRILKEPVHGV-COOH [TT-pol. (HIV)]
- shift of fluorescence (CFSE), immune response ([5]; mouse, in vivo): as intense as that provided by positive CON A control
